Measured values as given in patent publication US9833497B2, “Human originated EGF domain proteins and use of the same” (CHENGDU SOURCEBIO LIMITED-LIABILITY COMPANY, priority 2013, dated 2017).

Experiments:
Type in all cases: cell-based
E. coli DH5α = experiment: Antibacterial activity: MIC and growth curve against E. coli DH5α in 96-well plate; settings: minimal inhibitory concentration against E. coli DH5α; 96-well plate, 5×10^5 CFU/mL, 37° C., judged after 8 h
Outline: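 MIC taken as lowest protein level with no bacterial growth, tracked by A600 every 30 min during 37 °C, 175 rpm culture. Two-fold protein series 50-12.5 μg/mL final, triplicate wells, against 5×10^5 CFU/mL of LB-washed mid-log cells.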

E. coli BL21 = experiment: MIC against Gram-negative bacteria: E. coli BL21; settings: E. coli BL21
Outline: (§1)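 First, colonies from LB agar were grown in LB at 37° C, 185 rpm, to McFarland turbidity 0.5, then centrifuged and resuspended in fresh LB. Next, wells received 5×10^5 CFU/mL bacteria plus two-fold serially diluted EGF domain protein (triplicate). Finally, plates were shaken at 37° C and the no-growth concentration taken as MIC.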

Pseudomonas aeruginosa = experiment: MIC against Gram-negative bacteria: Pseudomonas aeruginosa; settings: for MIC against P. aeruginosa: Pseudomonas aeruginosa
Outline: as §1

Klebsiella pneumonia = experiment: MIC against Gram-negative bacteria: Klebsiella pneumonia; settings: for MIC against K. pneumonia: Klebsiella pneumonia
Outline: as §1

Enterobacter cloacae = experiment: MIC against Gram-negative bacteria: Enterobacter cloacae; settings: for MIC against E. cloacae: Enterobacter cloacae
Outline: as §1

Aeromonas hydrophila = experiment: MIC against Gram-negative bacteria: Aeromonas hydrophila; settings: for MIC against A. hydrophila: Aeromonas hydrophila
Outline: as §1

Citrobacter diversus = experiment: MIC against Gram-negative bacteria: Citrobacter diversus; settings: for MIC against C. diversus: Citrobacter diversus
Outline: as §1

Moraxella catarrhalis = experiment: MIC against Gram-negative bacteria: Moraxella catarrhalis; settings: for MIC against M. catarrhalis: Moraxella catarrhalis
Outline: as §1

Proteus mirabilis = experiment: MIC against Gram-negative bacteria: Proteus mirabilis; settings: for MIC against P. mirabilis: Proteus mirabilis
Outline: as §1

Proteus vulgaris = experiment: MIC against Gram-negative bacteria: Proteus vulgaris; settings: for MIC against P. vulgaris: Proteus vulgaris
Outline: as §1

Serratia marcescens = experiment: MIC against Gram-negative bacteria: Serratia marcescens; settings: for MIC against S. marcescens: Serratia marcescens
Outline: as §1

[1] = P. aeruginosa, 10 h cultivation at 37° C.
[2] = K. pneumonia, 10 h cultivation at 37° C.
[3] = E. cloacae, 10 h cultivation at 37° C.
[4] = A. hydrophila, 10 h cultivation at 37° C.
[5] = C. diversus, 10 h cultivation at 37° C.
[6] = M. catarrhalis, 10 h cultivation at 37° C.
[7] = P. mirabilis, 10 h cultivation at 37° C.
[8] = P. vulgaris, 10 h cultivation at 37° C.
[9] = S. marcescens, 10 h cultivation at 37° C.
[10] = 96-well plate, 5×10^5 CFU/mL, 37° C., 10 h
[11] = 5×10^5 CFU/mL, 10 h cultivation at 37° C.

Row | Substance | MIC (E. coli DH5α) | MIC (E. coli BL21; 10 h cultivation at 37° C.) | MIC (Pseudomonas aeruginosa; [1]) | MIC (Klebsiella pneumonia; [2]) | MIC (Enterobacter cloacae; [3]) | MIC (Aeromonas hydrophila; [4]) | MIC (Citrobacter diversus; [5]) | MIC (Moraxella catarrhalis; [6]) | MIC (Proteus mirabilis; [7]) | MIC (Proteus vulgaris; [8]) | MIC (Serratia marcescens; [9]) | MIC against E. coli BL21 (E. coli BL21; [10]) | MIC against P. aeruginosa (Pseudomonas aeruginosa; [10]) | MIC against K. pneumonia (Klebsiella pneumonia; [10]) | MIC against E. cloacae (Enterobacter cloacae; [10]) | MIC against A. hydrophila (Aeromonas hydrophila; [10]) | MIC against C. diversus (Citrobacter diversus; [10]) | MIC against M. catarrhalis (Moraxella catarrhalis; [10]) | MIC against P. mirabilis (Proteus mirabilis; [10]) | MIC against P. vulgaris (Proteus vulgaris; [10]) | further results
1 | PRT935 (NIDECASNPCLNQGTCFDDISGYTCHCVLPYTGKNCQ; listed as Homo sapiens) | 12.5 µg/mL | 25 µg/mL | 25 µg/mL | 12.5 µg/mL | 25 µg/mL | 25 µg/mL | 100 µg/mL | 12.5 µg/mL | 12.5 µg/mL | 12.5 µg/mL | 12.5 µg/mL | – | – | – | – | – | – | – | – | – | –
2 | PRT198 (CQPKTCNMRGICNNKQHCHCNHEWAPPYC; listed as Homo sapiens) | 12.5 µg/mL | – | – | – | – | – | – | – | – | – | – | – | – | – | – | – | – | – | – | – | MIC (μg/mL) E. coli BL21 (E. coli BL21; 10 h cultivation at 37° C., 5×10^5 CFU/mL): 12.5 µg/mL; MIC (μg/mL) P. aeruginosa (Pseudomonas aeruginosa; P. aeruginosa, 10 h cultivation at 37° C., 5×10^5 CFU/mL): 12.5 µg/mL; MIC (μg/mL) K. pneumonia (Klebsiella pneumonia; K. pneumonia, 10 h cultivation at 37° C., 5×10^5 CFU/mL): 50 µg/mL; MIC (μg/mL) E. cloacae (Enterobacter cloacae; E. cloacae, 10 h cultivation at 37° C., 5×10^5 CFU/mL): 12.5 µg/mL; MIC (μg/mL) A. hydrophila (Aeromonas hydrophila; A. hydrophila, 10 h cultivation at 37° C., 5×10^5 CFU/mL): 25 µg/mL; MIC (μg/mL) C. diversus (Citrobacter diversus; C. diversus, 10 h cultivation at 37° C., 5×10^5 CFU/mL): 50 µg/mL; MIC (μg/mL) M. catarrhalis (Moraxella catarrhalis; M. catarrhalis, 10 h cultivation at 37° C., 5×10^5 CFU/mL): 25 µg/mL; MIC (μg/mL) P. mirabilis (Proteus mirabilis; P. mirabilis, 10 h cultivation at 37° C., 5×10^5 CFU/mL): 12.5 µg/mL; MIC (μg/mL) P. vulgaris (Proteus vulgaris; P. vulgaris, 10 h cultivation at 37° C., 5×10^5 CFU/mL): 25 µg/mL; MIC (μg/mL) S. marcescens (Serratia marcescens; S. marcescens, 10 h cultivation at 37° C., 5×10^5 CFU/mL): 50 µg/mL
3 | PRT1338 (EMDPCTGLTPGGCSRNAECIKTGTGTHTCVCQQGWTGNGRDCS; listed as Homo sapiens) | 50 µg/mL | – | – | – | – | – | – | – | – | – | – | 25 µg/mL | 12.5 µg/mL | 25 µg/mL | 50 µg/mL | 12.5 µg/mL | 12.5 µg/mL | 12.5 µg/mL | 12.5 µg/mL | 12.5 µg/mL | MIC against S. marcescens (Serratia marcescens; [10]): 25 µg/mL
4 | PRT1485 (DVNECRRPLERRVCHHSCHNTVGSFLCTCRPGFRLRADRVSCE; listed as Homo sapiens) | 12.5 µg/mL | – | – | – | – | – | – | – | – | – | – | – | – | – | – | – | – | – | – | – | MIC against E. coli BL21 (E. coli BL21; [11]): 50 µg/mL; MIC against P. aeruginosa (Pseudomonas aeruginosa; [11]): 12.5 µg/mL; MIC against K. pneumonia (Klebsiella pneumonia; [11]): 12.5 µg/mL; MIC against E. cloacae (Enterobacter cloacae; [11]): 12.5 µg/mL; MIC against A. hydrophila (Aeromonas hydrophila; [11]): 50 µg/mL; MIC against C. diversus (Citrobacter diversus; [11]): 12.5 µg/mL; MIC against M. catarrhalis (Moraxella catarrhalis; [11]): 50 µg/mL; MIC against P. mirabilis (Proteus mirabilis; [11]): 12.5 µg/mL; MIC against P. vulgaris (Proteus vulgaris; [11]): 12.5 µg/mL; MIC against S. marcescens (Serratia marcescens; [11]): 12.5 µg/mL
5 | PRT1008 (ELDACQSQPCHNHGTCTPKPGGFHCACPPGFVGLRCE; listed as Homo sapiens) | 50 µg/mL | 12.5 µg/mL | 12.5 µg/mL | 12.5 µg/mL | 50 µg/mL | 12.5 µg/mL | 50 µg/mL | 12.5 µg/mL | 25 µg/mL | 50 µg/mL | 25 µg/mL | – | – | – | – | – | – | – | – | – | –
6 | PRT1331 (EIDPCADGLNGGCHEHATCKMTGPGKHKCECKSHYVGDGLNCE; listed as Homo sapiens) | 25 µg/mL | – | – | – | – | – | – | – | – | – | – | 50 µg/mL | 25 µg/mL | 12.5 µg/mL | 50 µg/mL | 12.5 µg/mL | 25 µg/mL | 50 µg/mL | 25 µg/mL | 12.5 µg/mL | MIC against S. marcescens (Serratia marcescens; [10]): 25 µg/mL
